The source of these data is US12139520B2 (priority 2020, dated 2024).

Series [1] in a line: Physical stability of peptide analogues (Thioflavin T fibrillation). It counts as physicochemical. To be noted: maximum ThT signal normalized between hAMY maximum and buffer background; 40° C., shaking, four days; pH 7 per table title. The method in brief: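 Samples are stressed at 40 °C for four days, being shaken at 700 rpm before each 10-min fluorescence reading of 4 μM Thioflavin T. Buffers were pH 4 acetate or pH 7 phosphate. Reported values are smoothed maximum ThT signals as a percentage of the hAMY-to-background range.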

In the next series the target is T1, hAMY3 receptor (Homo sapiens, UniProt O60896+P30988).
T1 sequence (P30988 25-474): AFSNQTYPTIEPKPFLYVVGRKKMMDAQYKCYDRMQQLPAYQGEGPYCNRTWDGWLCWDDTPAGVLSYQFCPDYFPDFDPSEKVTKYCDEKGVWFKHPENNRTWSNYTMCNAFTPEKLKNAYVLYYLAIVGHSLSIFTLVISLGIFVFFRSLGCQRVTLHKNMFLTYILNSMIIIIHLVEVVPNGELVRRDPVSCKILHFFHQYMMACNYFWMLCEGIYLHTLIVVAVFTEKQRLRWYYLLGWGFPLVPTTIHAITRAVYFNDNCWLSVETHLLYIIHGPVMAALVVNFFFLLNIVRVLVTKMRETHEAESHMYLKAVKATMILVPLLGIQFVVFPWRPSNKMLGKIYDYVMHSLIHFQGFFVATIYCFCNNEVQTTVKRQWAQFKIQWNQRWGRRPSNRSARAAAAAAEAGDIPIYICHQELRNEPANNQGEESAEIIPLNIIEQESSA
T1 sequence (O60896 24-148 partner): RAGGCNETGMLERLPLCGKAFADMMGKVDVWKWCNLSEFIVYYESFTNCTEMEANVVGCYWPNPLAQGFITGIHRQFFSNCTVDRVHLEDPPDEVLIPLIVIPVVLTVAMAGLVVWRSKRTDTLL
Nature of the series: cAMP assay for in vitro receptor activation, hAMY3-R. It counts as cell-based. To be noted: cAMP assay, hAMY3 receptor; read-out: hAMY3R EC50. The procedure, abridged:
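Read-out is TR-FRET cAMP signal, recorded one hour after reagent addition, following 30 min room-temperature stimulation of stable hAMY3 cells with graded compound doses in casein/IBMX (0.5 mM) buffer.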
In general terms: Changes in cAMP serve as a functional read-out for many G protein-coupled receptors.

SMILES strings stand for the structures. Bridge positions count the residues as written; N and C are the ends. Square brackets hold non-standard residues; d marks the D form. Peptide text beside a SMILES is read from it. Hyp = O=C(O)[C@@H]1C[C@@H](O)CN1; Cit = NC(=O)NCCC[C@H](N)C(=O)O

Usually EC50 stands for the concentration that produces a half-maximal response. Take `CC[C@H](C)[C@H](NC(=O)[C@H](CCC(N)=O)NC(=O)[C@H](Cc1c[nH]cn1)NC(=O)[C@H](C)NC(=O)[C@H](CC(C)C)NC(=O)[C@H](CCCNC(=N)N)NC(=O)[C@H](CCC(N)=O)NC(=O)[C@@H](NC(=O)[C@@H](NC(=O)[C@@H]1CSSC[C@H](NC(=O)CN)C(=O)N[C@@H](CCCNC(=N)N)C(=O)N[C@@H]([C@@H](C)O)C(=O)NCC(=O)N[C@@H]([C@@H](C)O)C(=O)N1)[C@@H](C)O)C(C)C)C(=O)N[C@@H](Cc1ccc(O)cc1)C(=O)N[C@@H](CCC(N)=O)C(=O)N[C@@H](Cc1ccccc1)C(=O)N[C@H](C(=O)N[C@@H](CC(=O)O)C(=O)N[C@@H](CCCCN)C(=O)N[C@@H](CC(=O)O)C(=O)N[C@@H](CCCCN)C(=O)N[C@@H](CC(=O)O)C(=O)N[C@@H](CC(N)=O)C(=O)N[C@H](C(=O)N[C@@H](C)C(=O)N1CCC[C@H]1C(=O)N[C@@H](CCCNC(=N)N)C(=O)N[C@H](C(=O)N[C@@H](CC(N)=O)C(=O)N[C@H](C(=O)N[C@@H](CO)C(=O)N1CCC[C@H]1C(=O)N[C@@H](CCC(N)=O)C(=O)NCC(=O)N1C[C@H](O)C[C@H]1C(N)=O)[C@@H](C)CC)[C@@H](C)O)C(C)C)[C@@H](C)O` [compound 214] (H-GCRTGTCTVQRLAHQIYQFTDKDKDNVAPRTNISPQG[Hyp]-NH2; disulfide 2-7; N-terminus assumed): the “Max ThT signal (%)” value in series [1] turned out to be 2.700%. Besides, the EC50 on hAMY3 receptor was determined as 0.157 nM.

`CC[C@H](C)[C@H](NC(=O)[C@H](CCC(N)=O)NC(=O)[C@H](Cc1c[nH]cn1)NC(=O)[C@H](C)NC(=O)[C@H](CC(C)C)NC(=O)[C@H](CCCNC(=N)N)NC(=O)[C@H](CCC(N)=O)NC(=O)[C@@H](NC(=O)[C@@H](NC(=O)[C@@H]1CSSC[C@H](NC(=O)CN)C(=O)N[C@@H](CCCNC(=N)N)C(=O)N[C@@H](Cc2ccccc2)C(=O)NCC(=O)N[C@@H]([C@@H](C)O)C(=O)N1)[C@@H](C)O)C(C)C)C(=O)N[C@@H](Cc1ccc(O)cc1)C(=O)N[C@@H](CCC(N)=O)C(=O)N[C@@H](Cc1ccccc1)C(=O)N[C@H](C(=O)N[C@@H](CC(=O)O)C(=O)N[C@@H](CCCCN)C(=O)N[C@@H](CC(=O)O)C(=O)N[C@@H](CCCCN)C(=O)N[C@@H](CC(=O)O)C(=O)N[C@@H](CC(N)=O)C(=O)N[C@H](C(=O)N[C@@H](C)C(=O)N1CCC[C@H]1C(=O)N[C@@H](CCCNC(=N)N)C(=O)N[C@@H](CO)C(=O)N[C@@H](CCCCN)C(=O)N[C@H](C(=O)NCC(=O)N1CCC[C@H]1C(=O)N[C@@H](CCC(N)=O)C(=O)NCC(=O)N1C[C@H](O)C[C@H]1C(N)=O)C(C)C)C(C)C)[C@@H](C)O` [compound 152] (H-GCRFGTCTVQRLAHQIYQFTDKDKDNVAPRSKVGPQG[Hyp]-NH2; disulfide 2-7; N-terminus assumed): in series [1], the “Max ThT signal (%)” value was found to be 1.900%. For the same compound, the EC50 on hAMY3 receptor was 0.041 nM.

`CC[C@H](C)[C@H](NC(=O)[C@H](CCC(N)=O)NC(=O)[C@H](Cc1c[nH]cn1)NC(=O)[C@H](C)NC(=O)[C@H](CC(C)C)NC(=O)[C@H](CCCNC(N)=O)NC(=O)[C@H](CCC(N)=O)NC(=O)[C@@H](NC(=O)[C@@H](NC(=O)[C@@H]1CSSC[C@H](NC(=O)CN)C(=O)N[C@@H](CCCNC(=N)N)C(=O)N[C@@H](Cc2ccccc2)C(=O)NCC(=O)N[C@@H]([C@@H](C)O)C(=O)N1)[C@@H](C)O)C(C)C)C(=O)N[C@@H](Cc1ccc(O)cc1)C(=O)N[C@@H](CCC(N)=O)C(=O)N[C@@H](Cc1ccccc1)C(=O)N[C@H](C(=O)N[C@@H](CC(=O)O)C(=O)N[C@@H](CCCCN)C(=O)N[C@@H](CC(=O)O)C(=O)N[C@@H](CCCCN)C(=O)N[C@@H](CC(=O)O)C(=O)N[C@@H](CC(N)=O)C(=O)N[C@H](C(=O)N[C@@H](C)C(=O)N1CCC[C@H]1C(=O)N[C@@H](CCCNC(=N)N)C(=O)N[C@@H](CO)C(=O)N[C@@H](CC(N)=O)C(=O)N[C@H](C(=O)NCC(=O)N1CCC[C@H]1C(=O)N[C@@H](CCC(N)=O)C(=O)NCC(=O)N1C[C@H](O)C[C@H]1C(N)=O)C(C)C)C(C)C)[C@@H](C)O` [compound 289] (H-GCRFGTCTVQ[Cit]LAHQIYQFTDKDKDNVAPRSNVGPQG[Hyp]-NH2; disulfide 2-7; N-terminus assumed): the “Max ThT signal (%)” value in series [1] is listed as 21.150%. Also, the EC50 on hAMY3 receptor worked out at 0.005 nM.

`CC[C@H](C)[C@H](NC(=O)[C@H](CCC(N)=O)NC(=O)[C@H](Cc1c[nH]cn1)NC(=O)[C@H](C)NC(=O)[C@H](CC(C)C)NC(=O)[C@H](Cc1c[nH]c2ccccc12)NC(=O)[C@H](CCC(N)=O)NC(=O)[C@@H](NC(=O)[C@@H](NC(=O)[C@@H]1CSSC[C@H](NC(=O)CN)C(=O)N[C@@H](CCCNC(=N)N)C(=O)N[C@@H](Cc2ccccc2)C(=O)NCC(=O)N[C@@H]([C@@H](C)O)C(=O)N1)[C@@H](C)O)C(C)C)C(=O)N[C@@H](Cc1ccc(O)cc1)C(=O)N[C@@H](CCC(N)=O)C(=O)N[C@@H](Cc1ccccc1)C(=O)N[C@H](C(=O)N[C@@H](CC(=O)O)C(=O)N[C@@H](CCCCN)C(=O)N[C@@H](CC(=O)O)C(=O)N[C@@H](CCCCN)C(=O)N[C@@H](CC(=O)O)C(=O)N[C@@H](CC(N)=O)C(=O)N[C@H](C(=O)N[C@@H](C)C(=O)N1CCC[C@H]1C(=O)N[C@@H](CCCNC(=N)N)C(=O)N[C@H](C(=O)N[C@@H](CC(N)=O)C(=O)N[C@H](C(=O)N[C@@H](CO)C(=O)N1CCC[C@H]1C(=O)N[C@@H](CCC(N)=O)C(=O)NCC(=O)N[C@@H](Cc1ccc(O)cc1)C(N)=O)C(C)C)[C@@H](C)O)C(C)C)[C@@H](C)O` [compound 340] (H-GCRFGTCTVQWLAHQIYQFTDKDKDNVAPRTNVSPQGY-NH2; disulfide 2-7; N-terminus assumed): the “Max ThT signal (%)” value in series [1] is given as 1.700%. The EC50 at hAMY3 receptor stood at 0.022 nM.

Take `CC[C@H](C)[C@H](NC(=O)[C@H](CCC(N)=O)NC(=O)[C@H](Cc1c[nH]cn1)NC(=O)[C@H](C)NC(=O)[C@H](CC(C)C)NC(=O)[C@H](CCCNC(=N)N)NC(=O)[C@H](CCC(N)=O)NC(=O)[C@@H](NC(=O)[C@@H](NC(=O)[C@@H]1CSSC[C@H](NC(=O)CN)C(=O)N[C@@H](CCCNC(=N)N)C(=O)N[C@@H]([C@@H](C)O)C(=O)NCC(=O)N[C@@H]([C@@H](C)O)C(=O)N1)[C@@H](C)O)C(C)C)C(=O)N[C@@H](Cc1ccc(O)cc1)C(=O)N[C@@H](CCC(N)=O)C(=O)N[C@@H](Cc1ccccc1)C(=O)N[C@H](C(=O)N[C@@H](CC(=O)O)C(=O)N[C@@H](CCCCN)C(=O)N[C@@H](Cc1ccccc1)C(=O)N[C@@H](CCCCN)C(=O)N[C@@H](CC(=O)O)C(=O)N[C@@H](CC(N)=O)C(=O)N[C@H](C(=O)N[C@@H](C)C(=O)N1CCC[C@H]1C(=O)N[C@@H](CCCNC(=N)N)C(=O)N[C@@H](CO)C(=O)N[C@@H](CCCCN)C(=O)N[C@H](C(=O)N[C@@H](CO)C(=O)N1CCC[C@H]1C(=O)N[C@@H](CCC(N)=O)C(=O)N[C@H](C(=O)N[C@@H](Cc1c[nH]c2ccccc12)C(N)=O)[C@@H](C)O)[C@@H](C)CC)C(C)C)[C@@H](C)O` [compound 184] (H-GCRTGTCTVQRLAHQIYQFTDKFKDNVAPRSKISPQTW-NH2; disulfide 2-7; N-terminus assumed): in series [1], the “Max ThT signal (%)” value is given as 0.800%. Further, the EC50 at hAMY3 receptor was 0.09 nM.

As to `CC[C@H](C)[C@H](NC(=O)[C@H](CCC(N)=O)NC(=O)[C@H](Cc1c[nH]cn1)NC(=O)[C@H](C)NC(=O)[C@H](CC(C)C)NC(=O)[C@H](CCCNC(=N)N)NC(=O)[C@H](CCC(N)=O)NC(=O)[C@@H](NC(=O)[C@@H](NC(=O)[C@@H]1CSSC[C@H](NC(=O)CN)C(=O)N[C@@H](CCCNC(=N)N)C(=O)N[C@@H](Cc2ccccc2)C(=O)NCC(=O)N[C@@H]([C@@H](C)O)C(=O)N1)[C@@H](C)O)C(C)C)C(=O)N[C@@H](Cc1ccc(O)cc1)C(=O)N[C@@H](CCC(N)=O)C(=O)N[C@@H](Cc1ccccc1)C(=O)N[C@H](C(=O)N[C@@H](CC(=O)O)C(=O)N[C@@H](CCCCN)C(=O)N[C@@H](CC(=O)O)C(=O)N[C@@H](CCCCN)C(=O)N[C@@H](CC(=O)O)C(=O)N[C@@H](CC(N)=O)C(=O)N[C@H](C(=O)N[C@@H](C)C(=O)N1CCC[C@H]1C(=O)N[C@@H](CCCNC(=N)N)C(=O)N[C@H](C(=O)N[C@@H](CC(N)=O)C(=O)N[C@H](C(=O)N[C@@H](CO)C(=O)N1CCC[C@H]1C(=O)N[C@@H](CCC(N)=O)C(=O)NCC(=O)N[C@@H](Cc1ccc(O)cc1)C(N)=O)[C@@H](C)CC)[C@@H](C)O)C(C)C)[C@@H](C)O` [compound 140] (H-GCRFGTCTVQRLAHQIYQFTDKDKDNVAPRTNISPQGY-NH2; disulfide 2-7; N-terminus assumed), in series [1], the “Max ThT signal (%)” value came out at 3.100%. At hAMY3 receptor, the EC50 came out at 0.036 nM.
